Legend:
[1] = Cytotoxicity in Vero-76 cell-line (MTT); type: cell-based; conditions: monkey (Cercopithecus aethiops), Vero-76 cells (mock-infected), mock-infected Vero-76 cells
Experimental: Vero-76 cells were seeded in 96-well plates at an initial density of 5 × 10^5 cells/ml, in Dulbecco’s Modified Eagle Medium (D-MEM) with L-glutamine and 25 mg/L kanamycin, supplemented with 10% FBS. Cell cultures were then incubated at 37°C in a humidified and 5% CO2 atmosphere, in the absence or presence of serial dilutions of test compounds. The test medium used for the cytotoxic assay as well as for antiviral assay contained 1% of the appropriate serum. Cell viability was determined after 48–96 h at 37°C by MTT method for Vero-76 ([Pauwels et al., 1988]).
(§1) The extent of cell growth/viability and viral multiplication, at each drug concentration tested, were expressed as percentage of untreated controls. Concentrations resulting in 50% inhibition (CC50 or EC50) were determined by linear regression analysis.

Poliovirus type-1 (Sb-1) = assay: microbe, parasite or virus in culture; type: cell-based; conditions: Enterovirus C, Vero 76, read-out: EC50, plaque reduction Sb-1
[2] = system: Coxsackievirus B5 (CV-B5); assay: Plaque reduction assay, CV-B5 in Vero-76 monolayers; type: cell-based; conditions: Enterovirus B
CCRF-CEM = assay: Antiproliferative assay (MTT), CCRF-CEM; type: cell-based, human; conditions: Homo sapiens, CCRF-CEM, 96 h, read-out: CC50 CCRF-CEM
Experimental: (§2) Cell lines were purchased from American Type Culture Collection (ATCC). The absence of mycoplasma contamination was checked periodically by the Hoechst staining method. Exponentially growing leukemia and lymphoma cells were seeded at 1 × 10^5 cells/ml in 96 well plates in RPMI-1640 medium, supplemented with 10% fetal bovine serum, 100 units/ml penicillin G, and 100 μg/ml streptomycin, and incubated at 37°C in a humidified, 5% CO2 atmosphere in the absence or presence of serial dilutions of test compounds. Cell viability was determined after 96 h at 37°C by the 3-(4,5-dimethylthiazol-2-yl)-2,5-diphenyl-tetrazolium bromide (MTT) method. Activity against solid-tumor derived cells was evaluated in exponentially growing cultures seeded at 5 × 10^4 cells/ml and allowed to adhere for 16 h to culture plates before the addition of the drugs. Cell viability was determined by the MTT method 4 days later. Vincristine and doxorubicin were used as reference drugs.
as §1

WIL-2NS = assay: Antiproliferative assay (MTT), WIL-2NS; type: cell-based; conditions: Homo sapiens, WIL2-NS, 96 h, read-out: CC50 WIL-2NS
Experimental: as §2, §1

CCRF-SB = assay: Antiproliferative assay (MTT), CCRF-SB; type: cell-based; conditions: Homo sapiens, 96 h, read-out: CC50 CCRF-SB
Experimental: as §2, §1

SK-MEL28 = assay: Antiproliferative assay (MTT), SK-MEL28; type: cell-based; conditions: Homo sapiens, SK-MEL-28, 96 h, read-out: CC50 SK-MEL28
Experimental: as §2, §1

SK-MES1 = assay: Antiproliferative assay (MTT), SK-MES1; type: cell-based; conditions: Homo sapiens, SK-MES-1, 96 h, read-out: CC50 SK-MES1
Experimental: as §2, §1

DU145 = assay: Antiproliferative assay (MTT), DU145; type: cell-based; conditions: Homo sapiens, DU-145, 96 h, read-out: CC50 DU145
Experimental: as §2, §1

HeLa = assay: Antiproliferative assay (MTT), HeLa; type: cell-based; conditions: Homo sapiens, 96 h, read-out: CC50 HeLa
Experimental: as §2, §1

[3] = Antiproliferative assay (MTT), CRL 7065 control fibroblasts; type: cell-based, human; conditions: human
Experimental: as §2, §1

| Structure (SMILES) | melting point [°C] | also measured |
| --- | --- | --- |
| O=C(O)CCC(=O)Nc1ccc(Cn2nnc3ccccc32)cc1 | 193 to 195 | – |
| O=C(O)CCCC(=O)Nc1ccc(Cn2nnc3ccccc32)cc1 | 152 to 154 | – |
| O=C(O)CCCCC(=O)Nc1ccc(Cn2nnc3ccccc32)cc1 | 134 to 136 | – |
| O=C(O)c1ccc(C(=O)Nc2ccc(Cn3nnc4ccccc43)cc2)cc1 | > 300 | – |
| O=C(O)c1cccc(C(=O)Nc2ccc(Cn3nnc4ccccc43)cc2)n1 | 230 to 232 | – |
| O=C(O)c1ccc(C(=O)Nc2ccc(Cn3nnc4ccccc43)cc2)s1 | > 300 | – |
| Cc1cc2nnn(Cc3ccc(NC(=O)CCC(=O)O)cc3)c2cc1C | 218 to 220 | – |
| Cc1cc2nnn(Cc3ccc(NC(=O)CCCC(=O)O)cc3)c2cc1C | 270 to 272 | – |
| Cc1cc2nnn(Cc3ccc(NC(=O)CCCCC(=O)O)cc3)c2cc1C | 203 to 204 | – |
| Cc1cc2nnn(Cc3ccc(NC(=O)/C=C/C(=O)O)cc3)c2cc1C | 256 to 258 | – |
| Cc1cc2nnn(Cc3ccc(NC(=O)c4ccc(C(=O)O)cc4)cc3)c2cc1C | > 300 | – |
| Cc1cc2nnn(Cc3ccc(NC(=O)c4cccc(C(=O)O)n4)cc3)c2cc1C | 214 to 216 | – |
| Cc1cc2nnn(Cc3ccc(NC(=O)c4ccc(C(=O)O)s4)cc3)c2cc1C | > 300 | – |
| O=C(O)CCC(=O)Nc1ccc(Cn2nnc3cc(Cl)c(Cl)cc32)cc1 | 214 to 216 | – |
| O=C(O)CCCC(=O)Nc1ccc(Cn2nnc3cc(Cl)c(Cl)cc32)cc1 | 173 to 175 | – |
| O=C(O)CCCCC(=O)Nc1ccc(Cn2nnc3cc(Cl)c(Cl)cc32)cc1 | 228 to 230 | – |
| O=C(O)c1cccc(C(=O)Nc2ccc(Cn3nnc4cc(Cl)c(Cl)cc43)cc2)n1 | 175 to 177 | – |
| O=C(CCC(=O)Nc1ccc(-n2nnc3cc(Cl)c(Cl)cc32)cc1)Nc1ccc(-n2nnc3cc(Cl)c(Cl)cc32)cc1 | 264 to 265 | – |
| O=C(CCCCC(=O)Nc1ccc(-n2nnc3cc(Cl)c(Cl)cc32)cc1)Nc1ccc(-n2nnc3cc(Cl)c(Cl)cc32)cc1 | 293 to 294 | – |
| O=C(Nc1ccc(-n2nnc3cc(Cl)c(Cl)cc32)cc1)c1ccc(C(=O)Nc2ccc(-n3nnc4cc(Cl)c(Cl)cc43)cc2)cc1 | 197 to 199 | – |
| O=C(Nc1ccc(-n2nnc3cc(Cl)c(Cl)cc32)cc1)c1cccc(C(=O)Nc2ccc(-n3nnc4cc(Cl)c(Cl)cc43)cc2)n1 | > 300 | – |
| O=C(O)c1cccc(C(=O)Nc2ccc(-n3nnc4cc(Cl)c(Cl)cc43)cc2)n1 | 240 | – |
| O=C(Nc1ccc(-n2nc3cc(Cl)c(Cl)cc3n2)cc1)c1ccc(C(=O)Nc2ccc(-n3nc4cc(Cl)c(Cl)cc4n3)cc2)cc1 | > 300 | – |
| O=C(Nc1ccc(-n2nc3cc(Cl)c(Cl)cc3n2)cc1)c1cccc(C(=O)Nc2ccc(-n3nc4cc(Cl)c(Cl)cc4n3)cc2)n1 | > 300 | – |
| O=C(Nc1ccc(-n2nc3cc(Cl)c(Cl)cc3n2)cc1)c1ccc(C(=O)Nc2ccc(-n3nc4cc(Cl)c(Cl)cc4n3)cc2)s1 | > 300 | – |

| Structure (SMILES) | melting point [°C] | also measured |
| --- | --- | --- |
| O=C(O)c1cccc(C(=O)Nc2ccc(-n3nc4cc(Cl)c(Cl)cc4n3)cc2)n1 | 240 | – |
| O=C(CCC(=O)Nc1ccc(Cn2nnc3ccccc32)cc1)Nc1ccc(Cn2nnc3ccccc32)cc1 | 255 to 257 | – |
| O=C(CCCC(=O)Nc1ccc(Cn2nnc3ccccc32)cc1)Nc1ccc(Cn2nnc3ccccc32)cc1 | 237 to 238 | – |
| O=C(CCCCC(=O)Nc1ccc(Cn2nnc3ccccc32)cc1)Nc1ccc(Cn2nnc3ccccc32)cc1 | 231 to 232 | – |
| O=C(Nc1ccc(Cn2nnc3ccccc32)cc1)c1ccc(C(=O)Nc2ccc(Cn3nnc4ccccc43)cc2)cc1 | > 300 | – |
| O=C(Nc1ccc(Cn2nnc3ccccc32)cc1)c1cccc(C(=O)Nc2ccc(Cn3nnc4ccccc43)cc2)n1 | 111 to 112 | – |
| O=C(Nc1ccc(Cn2nnc3ccccc32)cc1)c1ccc(C(=O)Nc2ccc(Cn3nnc4ccccc43)cc2)s1 | > 300 | – |
| Cc1cc2nnn(Cc3ccc(NC(=O)CCC(=O)Nc4ccc(Cn5nnc6cc(C)c(C)cc65)cc4)cc3)c2cc1C | 270 to 272 | – |
| Cc1cc2nnn(Cc3ccc(NC(=O)CCCC(=O)Nc4ccc(Cn5nnc6cc(C)c(C)cc65)cc4)cc3)c2cc1C | 253 to 255 | – |
| Cc1cc2nnn(Cc3ccc(NC(=O)CCCCC(=O)Nc4ccc(Cn5nnc6cc(C)c(C)cc65)cc4)cc3)c2cc1C | 283 to 285 | – |
| Cc1cc2nnn(Cc3ccc(NC(=O)/C=C/C(=O)Nc4ccc(Cn5nnc6cc(C)c(C)cc65)cc4)cc3)c2cc1C | 117 to 119 | – |
| Cc1cc2nnn(Cc3ccc(NC(=O)c4cccc(C(=O)Nc5ccc(Cn6nnc7cc(C)c(C)cc76)cc5)n4)cc3)c2cc1C | 186 to 188 | – |
| Cc1cc2nnn(Cc3ccc(NC(=O)c4ccc(C(=O)Nc5ccc(Cn6nnc7cc(C)c(C)cc76)cc5)s4)cc3)c2cc1C | 225 to 227 | – |
| O=C(CCCCC(=O)Nc1ccc(Cn2nnc3cc(Cl)c(Cl)cc32)cc1)Nc1ccc(Cn2nnc3cc(Cl)c(Cl)cc32)cc1 | > 300 | – |
| O=C(/C=C/C(=O)Nc1ccc(Cn2nnc3cc(Cl)c(Cl)cc32)cc1)Nc1ccc(Cn2nnc3cc(Cl)c(Cl)cc32)cc1 | > 300 | – |
| O=C(Nc1ccc(Cn2nnc3cc(Cl)c(Cl)cc32)cc1)c1cccc(C(=O)Nc2ccc(Cn3nnc4cc(Cl)c(Cl)cc43)cc2)n1 | > 300 | – |
| O=C(Nc1ccc(Cn2nnc3cc(Cl)c(Cl)cc32)cc1)c1ccc(C(=O)Nc2ccc(Cn3nnc4cc(Cl)c(Cl)cc43)cc2)s1 | > 300 | – |
| C#C[C@@]1(O)[C@H](O)[C@@H](CO)O[C@H]1n1ccc(N)nc1=O [Compound 2ec, 2′-C-ethynyl-cytidine, reference compound] | – | CC50 [1]: > 100 µM; EC50 (Poliovirus type-1 (Sb-1)): 23 µM |
| O=C(O)CCC(=O)Nc1ccc(-n2nnc3cc(Cl)c(Cl)cc32)cc1 [Compound 4a, 4-((4-(5,6-Dichloro-1H-Benzo[d][1,2,3]Triazol-1-yl)phenyl)amino)-4-oxobutanoic Acid] | 163 to 164 | CC50 [1]: 90 µM; EC50 [2]: 13 µM; EC50 (Poliovirus type-1 (Sb-1)): > 90 µM |
| O=C(O)CCCC(=O)Nc1ccc(-n2nnc3cc(Cl)c(Cl)cc32)cc1 [Compound 4b, 5-((4-(5,6-Dichloro-1H-Benzo[d][1,2,3]Triazol-1-yl)phenyl)amino)-5-oxopentanoic Acid] | 106 to 108 | CC50 [1]: > 100 µM; EC50 [2]: 45 µM; EC50 (Poliovirus type-1 (Sb-1)): 44 µM |
| O=C(O)CCCCC(=O)Nc1ccc(-n2nnc3cc(Cl)c(Cl)cc32)cc1 [Compound 4c, 6-((4-(5,6-Dichloro-1H-Benzo[d][1,2,3]Triazol-1-yl)phenyl)amino)-6-oxohexanoic Acid] | 148 to 150 | CC50 [1]: 37 µM; EC50 [2]: 9 µM; EC50 (Poliovirus type-1 (Sb-1)): > 37 µM |
| O=C(CCC(=O)Nc1ccc(Cn2nnc3cc(Cl)c(Cl)cc32)cc1)Nc1ccc(Cn2nnc3cc(Cl)c(Cl)cc32)cc1 [Compound 9a, N ^1,N ^4-Bis(4-((5,6-Dichloro-1H-Benzo[d][1,2,3]Triazol-1-yl)methyl)phenyl)Succinamide] | > 300 | CC50 [1]: > 100 µM; EC50 [2]: 23 µM; EC50 (Poliovirus type-1 (Sb-1)): 43 µM |
| COc1cccc2c1C(=O)c1c(O)c3c(c(O)c1C2=O)C[C@@](O)(C(=O)CO)C[C@@H]3O[C@H]1C[C@H](N)[C@H](O)[C@H](C)O1 [Doxorubicin, reference compound] | – | CC50 (CCRF-CEM): 0.02 ± 0.01 µM; CC50 (WIL-2NS): 0.06 ± 0.01 µM; CC50 (CCRF-SB): 0.03 ± 0.02 µM; CC50 (SK-MEL28): 1.1 ± 0.2 µM; CC50 (SK-MES1): 0.65 ± 0.05 µM; CC50 (DU145): 0.3 ± 0.1 µM; CC50 (HeLa): 1.8 ± 0.2 µM; CC50 at 96 h [3]: 2 ± 0.2 µM |
| Cc1cc(CCCOc2c(C)cc(-c3noc(C(F)(F)F)n3)cc2C)on1 [P, Pleconaril, reference compound] | – | CC50 [1]: > 100 µM; EC50 [2]: 0.005 µM |

— paper PMC8129498, “Synthesis, Antitumor and Antiviral In Vitro Activities of New Benzotriazole-Dicarboxamide Derivatives” (Frontiers in Chemistry, 2021)
